Organism: Rattus norvegicus
Assay: DrugMatrix - Regimen: Daily Repeat
Assay type: toxicity, organism-based, Sprague-Dawley
Design: regimen Daily Repeat, gender Male, age 6-8 weeks
Conditions: in vivo, po, route oral GAVAGE, vehicle .5 % CMC; for ABSOLUTE BASOPHIL / ABSOLUTE EOSINOPHIL / ABSOLUTE LYMPHOCYTE / ABSOLUTE MONOCYTE / ABSOLUTE SEGMENTED NEUTROPHIL / BASOPHIL / EOSINOPHIL / ERYTHROCYTE COUNT / HEMATOCRIT / HEMOGLOBIN / LEUKOCYTE COUNT / LYMPHOCYTE / MEAN CORPUSCULAR HEMOGLOBIN / MEAN CORPUSCULAR HEMOGLOBIN CONCENTRATION / MEAN CORPUSCULAR VOLUME / MONOCYTE / NEUTROPHIL / NUCLEATED RED BLOOD CELLS / PLATELET COUNT: tissue Blood; for ALANINE AMINOTRANSFERASE / ALBUMIN / ALKALINE PHOSPHATASE / ASPARTATE AMINOTRANSFERASE / BLOOD UREA NITROGEN / CARBON DIOXIDE / CHLORIDE / CHOLESTEROL / CREATINE PHOSPHOKINASE / CREATININE / GLUCOSE / LACTATE DEHYDROGENASE / LIPASE / PHOSPHORUS / POTASSIUM / SODIUM / TOTAL BILIRUBIN / TOTAL PROTEIN / URIC ACID: tissue Plasma
[1] = 25 mg/kg, 72 h, dose level Low, time 3 day
[2] = 25 mg/kg, 120 h, dose level Low, time 5 day
[3] = 1500 mg/kg, 72 h, dose level High, time 3 day
[4] = 1500 mg/kg, 120 h, dose level High, time 5 day

## Cc1ccc(S(=O)(=O)NC(=O)NN2CCCCCC2)cc1 [TOLAZAMIDE]
[1]
  ABSOLUTE BASOPHIL: 0 CELLS/uL
  ABSOLUTE EOSINOPHIL: 281.67 CELLS/uL
  ABSOLUTE LYMPHOCYTE: 14664 CELLS/uL
  ABSOLUTE MONOCYTE: 321 CELLS/uL
  ABSOLUTE SEGMENTED NEUTROPHIL: 2033.33 CELLS/uL
  BASOPHIL: 0%
  EOSINOPHIL: 1.67%
  ERYTHROCYTE COUNT: 5.23 x10E6/uL
  HEMATOCRIT: 32.97%
  HEMOGLOBIN: 12.7 G/DL
  LEUKOCYTE COUNT: 17.3 x10E3/uL
  LYMPHOCYTE: 85%
  MEAN CORPUSCULAR HEMOGLOBIN: 24.27 pg
  MEAN CORPUSCULAR HEMOGLOBIN CONCENTRATION: 38.53 G/DL
  MEAN CORPUSCULAR VOLUME: 63 fL
  MONOCYTE: 2%
  NEUTROPHIL: 11.33%
  NUCLEATED RED BLOOD CELLS: 0 /100WBC
  PLATELET COUNT: 1363.33 x10E3/uL
  ALANINE AMINOTRANSFERASE: 47.33 u/L
  ALBUMIN: 4.3 G/DL
  ALKALINE PHOSPHATASE: 373.67 u/L
  ASPARTATE AMINOTRANSFERASE: 73.33 u/L
  BLOOD UREA NITROGEN: 13.33 mg/dL
  CARBON DIOXIDE: 22 mmol/L
  CHLORIDE: 102.33 MEQ/L
  CHOLESTEROL: 62.67 mg/dL
  CREATINE PHOSPHOKINASE: 209.33 u/L
  CREATININE: 0.17 mg/dL
  GLUCOSE: 152.33 mg/dL
  LACTATE DEHYDROGENASE: 265 u/L
  LIPASE: 9 u/L
  PHOSPHORUS: 13.13 mg/dL
  POTASSIUM: 7.02 MEQ/L
  SODIUM: 143.5 MEQ/L
  TOTAL BILIRUBIN: 0.17 mg/dL
  TOTAL PROTEIN: 5.3 G/DL
  URIC ACID: 1.97 mg/dL
[2]
  ABSOLUTE BASOPHIL: 0 CELLS/uL
  ABSOLUTE EOSINOPHIL: 87.33 CELLS/uL
  ABSOLUTE LYMPHOCYTE: 13745 CELLS/uL
  ABSOLUTE MONOCYTE: 575.67 CELLS/uL
  ABSOLUTE SEGMENTED NEUTROPHIL: 1458.67 CELLS/uL
  BASOPHIL: 0%
  EOSINOPHIL: 0.67%
  ERYTHROCYTE COUNT: 6.16 x10E6/uL
  HEMATOCRIT: 38.13%
  HEMOGLOBIN: 13.9 G/DL
  LEUKOCYTE COUNT: 15.87 x10E3/uL
  LYMPHOCYTE: 86.67%
  MEAN CORPUSCULAR HEMOGLOBIN: 22.6 pg
  MEAN CORPUSCULAR HEMOGLOBIN CONCENTRATION: 36.47 G/DL
  MEAN CORPUSCULAR VOLUME: 61.93 fL
  MONOCYTE: 3.67%
  NEUTROPHIL: 9%
  NUCLEATED RED BLOOD CELLS: 0 /100WBC
  PLATELET COUNT: 1264.67 x10E3/uL
  ALANINE AMINOTRANSFERASE: 46.67 u/L
  ALBUMIN: 4.3 G/DL
  ALKALINE PHOSPHATASE: 296.33 u/L
  ASPARTATE AMINOTRANSFERASE: 92.67 u/L
  BLOOD UREA NITROGEN: 17.33 mg/dL
  CARBON DIOXIDE: 23.67 mmol/L
  CHLORIDE: 109.33 MEQ/L
  CHOLESTEROL: 61.67 mg/dL
  CREATINE PHOSPHOKINASE: 320 u/L
  CREATININE: 0.19 mg/dL
  GLUCOSE: 152.33 mg/dL
  LACTATE DEHYDROGENASE: 425.33 u/L
  LIPASE: 9 u/L
  PHOSPHORUS: 11.2 mg/dL
  POTASSIUM: 5.71 MEQ/L
  SODIUM: 148.83 MEQ/L
  TOTAL BILIRUBIN: 0.17 mg/dL
  TOTAL PROTEIN: 6.13 G/DL
  URIC ACID: 1.27 mg/dL
[3]
  ABSOLUTE BASOPHIL: 0 CELLS/uL
  ABSOLUTE EOSINOPHIL: 0 CELLS/uL
  ABSOLUTE LYMPHOCYTE: 13270.33 CELLS/uL
  ABSOLUTE MONOCYTE: 328.33 CELLS/uL
  ABSOLUTE SEGMENTED NEUTROPHIL: 801.33 CELLS/uL
  BASOPHIL: 0%
  EOSINOPHIL: 0%
  ERYTHROCYTE COUNT: 5.57 x10E6/uL
  HEMATOCRIT: 35.93%
  HEMOGLOBIN: 13.3 G/DL
  LEUKOCYTE COUNT: 14.4 x10E3/uL
  LYMPHOCYTE: 92%
  MEAN CORPUSCULAR HEMOGLOBIN: 23.9 pg
  MEAN CORPUSCULAR HEMOGLOBIN CONCENTRATION: 37.03 G/DL
  MEAN CORPUSCULAR VOLUME: 64.5 fL
  MONOCYTE: 2.33%
  NEUTROPHIL: 5.67%
  NUCLEATED RED BLOOD CELLS: 0 /100WBC
  PLATELET COUNT: 1235.33 x10E3/uL
  ALANINE AMINOTRANSFERASE: 26.33 u/L
  ALBUMIN: 4.3 G/DL
  ALKALINE PHOSPHATASE: 233.33 u/L
  ASPARTATE AMINOTRANSFERASE: 69 u/L
  BLOOD UREA NITROGEN: 17.67 mg/dL
  CARBON DIOXIDE: 25 mmol/L
  CHLORIDE: 106.33 MEQ/L
  CHOLESTEROL: 46.67 mg/dL
  CREATINE PHOSPHOKINASE: 172 u/L
  CREATININE: 0.18 mg/dL
  GLUCOSE: 142 mg/dL
  LACTATE DEHYDROGENASE: 80.67 u/L
  LIPASE: 8 u/L
  PHOSPHORUS: 9.5 mg/dL
  POTASSIUM: 5.38 MEQ/L
  SODIUM: 145.4 MEQ/L
  TOTAL BILIRUBIN: 0.27 mg/dL
  TOTAL PROTEIN: 5.8 G/DL
  URIC ACID: 1.07 mg/dL
[4]
  ABSOLUTE BASOPHIL: 0 CELLS/uL
  ABSOLUTE EOSINOPHIL: 47.67 CELLS/uL
  ABSOLUTE LYMPHOCYTE: 13177.33 CELLS/uL
  ABSOLUTE MONOCYTE: 515.33 CELLS/uL
  ABSOLUTE SEGMENTED NEUTROPHIL: 1493 CELLS/uL
  BASOPHIL: 0%
  EOSINOPHIL: 0.33%
  ERYTHROCYTE COUNT: 6.17 x10E6/uL
  HEMATOCRIT: 38.2%
  HEMOGLOBIN: 14.3 G/DL
  LEUKOCYTE COUNT: 15.23 x10E3/uL
  LYMPHOCYTE: 86.67%
  MEAN CORPUSCULAR HEMOGLOBIN: 23.2 pg
  MEAN CORPUSCULAR HEMOGLOBIN CONCENTRATION: 37.47 G/DL
  MEAN CORPUSCULAR VOLUME: 61.93 fL
  MONOCYTE: 3.33%
  NEUTROPHIL: 9.67%
  NUCLEATED RED BLOOD CELLS: 0 /100WBC
  PLATELET COUNT: 1206.33 x10E3/uL
  ALANINE AMINOTRANSFERASE: 28 u/L
  ALBUMIN: 4.7 G/DL
  ALKALINE PHOSPHATASE: 319.67 u/L
  ASPARTATE AMINOTRANSFERASE: 70.67 u/L
  BLOOD UREA NITROGEN: 19 mg/dL
  CARBON DIOXIDE: 25.33 mmol/L
  CHLORIDE: 105.33 MEQ/L
  CHOLESTEROL: 58.33 mg/dL
  CREATINE PHOSPHOKINASE: 168.67 u/L
  CREATININE: 0.2 mg/dL
  GLUCOSE: 138.67 mg/dL
  LACTATE DEHYDROGENASE: 114 u/L
  LIPASE: 9.33 u/L
  PHOSPHORUS: 13.07 mg/dL
  POTASSIUM: 6.1 MEQ/L
  SODIUM: 149.93 MEQ/L
  TOTAL BILIRUBIN: 0.2 mg/dL
  TOTAL PROTEIN: 6.57 G/DL
  URIC ACID: 2.17 mg/dL
